{"source": "patent US12195512B2", "about": "“Affinity ligands for antibody Fc region” (Univerza v Ljubljani, priority 2018, dated 2025)", "key": {"human IgG Fc fragment [1]": {"system": "human IgG Fc fragment", "assay": "phage ELISA of phage-displayed peptides on human Fc fragment", "format": "binding", "settings": "peptide displayed on phage; absorbance at 450 nm", "description": "Three different phage display libraries were subjected to separate panning processes according to the protocol known to one skilled in the art. Various Fc-binding peptides were selected by targeting biotin-conjugated human Fc fragment prepared by random biotinylation of amine residues using EZ-Link™ Sulfo-NHS-SS-Biotin (Thermo Fisher Scientific, Rockford, IL, USA). After three rounds of affinity selection, individual clones were picked for phage Enzyme Linked Immuno-Sorbent Assay (ELISA) in order to evaluate their Fc fragment binding ability.\n(§1) Wells of a 96-well microplate (Nunc, Maxisorp) were either coated with human Fc fragment solution or streptavidin as negative control. The wells were blocked with BSA and contacted with amplified population of each individual clone. Bound phages were detected by the addition of horseradish peroxidase (HRP)-conjugated anti-M13 monoclonal antibodies using the chromogenic substrate (3,3′,5,5′-tetramethylbenzidine (TMB)) solution, and absorbance at 450 nm was measured.\nThe experiment was performed in triplicate.\nIn order to investigate the contribution of individual amino acid residues of the truncated peptide SEQ ID NO: 2 to the Fc binding, alanine scanning strategy was carried out. […] However, we determined specific positions where alanine substitutions were well tolerated in terms of preserving binding activity. […]"}, "human IgG Fc fragment [2]": {"system": "human IgG Fc fragment", "assay": "competitive phage FLISA with Staphylococcal protein A", "format": "binding", "experimental": "SpA is known to interact specifically with the region at the CH2-CH3 interface of immunoglobulins. Wells of the black Nunc MaxiSorp microtiter plate were either coated with human IgG Fc fragment or left uncoated (controls). Wells were blocked with BSA and contacted with purified fluorescein-labelled phage clone (the labelling procedure was adapted from the instructions of FITC manufacturer, Sigma-Aldrich). Phage was allowed to compete for the Fc binding with SpA in concentrations 1 μM, 100 nM or 10 nM. After 1 h-incubation at room temperature, the content was discarded and wells were washed with 0.1% PBST and finally filled with PBS. Fluorescence intensities in individual wells were measured at 510 nm upon excitation at 485 nm. The experiment was performed in triplicate."}, "[3]": {"system": "human IgG subclasses (IgG1, IgG2, IgG3 and IgG4) and human intravenous immunoglobulins", "assay": "assay akin to ELISA with (peptide)4 SA-HRP complexes on human IgGs", "format": "binding", "settings": "for binding of biotinylated synthetic peptides to human IgGs: C-terminal linker SEQ ID NO: 181 biotinylated, tetrameric (peptide)4 SA-HRP complexes; for binding compared with the parental peptide SEQ ID NO: 2: biotinylated synthetic peptides, (peptide)4 SA-HRP complexes, human IgGs", "experimental": "(§2) The binding activity of the described biotinylated synthetic peptides to different immunoglobulins was evaluated using an assay akin to ELISA. Wells were coated with the different subclasses of human IgGs or human intravenous immunoglobulins. All the wells were blocked with BSA. A biotinylated synthetic peptide and horseradish peroxidase (HRP)-conjugated streptavidin (SA-HRP) were mixed in advance at molar ratio of 4:1 to formulate tetrameric (peptide)4 SA-HRP complexes and then the mixtures were added to individual wells. After washing, the (peptide)4 SA-HRP complexes were detected with TMB solution."}, "[4]": {"system": "human IgG Fc fragment and native human IgGs", "assay": "pull-down assay with peptide-coated streptavidin paramagnetic beads", "settings": "versus parent peptide SEQ ID NO: 2", "experimental": "Selected peptides (SEQ ID NO: 2, SEQ ID NO: 30, and SEQ ID NO: 26) with biotin attached via epsilon-amino group of C-terminal amidated lysine in added linker SEQ ID NO: 181 were synthesized and coupled to streptavidin-coated paramagnetic beads. The same paramagnetic beads without addition of peptide and the same paramagnetic beads coupled with unrelated biotinylated peptide SEQ. ID 185 were used as negative controls. First, the Fc fragment of human antibodies (2 μg) was spiked into PBS and incubated with peptide-coated paramagnetic beads. The beads were then pelleted, washed with 0.1% PBST, and the bound material was eluted with acidic buffer (0.2 M glycine/HCl, pH 2.2). The low pH eluate was immediately neutralized with 1M Tris/HCl, pH 9.1. The eluates obtained from pull-down assay were analyzed by DotBlot assay and Western blotting using polyclonal goat anti-human IgG (H+L) HRP conjugate for detection (results not shown). Equivalent pull-down assay was carried out also from serum free DMEM growth medium spiked with human Fc fragment (2 μg) with peptide SEQ ID NO: 2 (FIG. 11). Additionally, the pull-down assay was also made from intact human sera. The presence of human IgGs in the eluate was confirmed by Coomassie blue staining (FIG. 13) and Western blot analysis (FIG. 12) using HRP-conjugated goat anti-human (H+L) antibodies (BioRad)."}, "BSA, avidin and SA": {"system": "BSA, avidin and SA", "assay": "phage ELISA on negative control targets", "format": "binding", "settings": "peptide displayed on phage", "experimental": "as §1\n(§3) The binding activity of phage clone displaying the minimized peptide SEQ ID NO: 2, was further evaluated by phage ELISA (as described above) using different subclasses of native human IgGs and different therapeutic monoclonal antibodies. BSA, avidin and SA were used as targets in negative control wells."}, "[5]": {"system": "therapeutic monoclonal antibodies", "assay": "phage ELISA on therapeutic monoclonal antibodies", "format": "binding", "settings": "peptide displayed on phage as P3 fusion", "experimental": "as §1, §3"}, "[6]": {"system": "human IgGs of different subclasses (IgG1, IgG2, IgG3 and IgG4)", "assay": "phage ELISA on subclasses of native human IgGs", "format": "binding", "settings": "peptide displayed on phage as P3 fusion", "experimental": "as §1, §3"}, "human Fc fragment": {"system": "human Fc fragment", "assay": "surface plasmon resonance (BIAcore X100), peptide immobilized via streptavidin", "format": "binding", "settings": "25° C; Fc 10-160 nM, single cycle", "experimental": "Interaction between the synthetic biotinylated peptide ligand with amino acid sequence identical to SEQ ID NO: 2 and human Fc fragment was analyzed by surface plasmon resonance (SPR) using BIAcoreX100 (BIAcore) at 25° C. Biotinylated synthetic peptide of the present invention was immobilized to the matrix indirectly through streptavidin. Streptavidin (SA) was immobilized to the surface of CM-5 chip through random amine coupling according to the manufacturer's recommendations to achieve a stable response corresponding to approximately 4000 resonance units. The first cell surface was prior activated and deactivated and used as a reference cell during injections. After successful covalent immobilization of SA to dextran matrix via amino groups, a 120 nM solution (pH 5) of biotinylated synthetic peptide SEQ ID NO: 2 was injected over a sensor chip SA to immobilize the peptide onto the chip. The amount of immobilized peptide was adjusted to the stable response corresponding to approximately 200 RU. Subsequently, solutions of human Fc fragment (the analyte) of various concentrations (10 nM, 20 nM, 40 nM, 80 nM, and 160 nM) in running buffer (0.005% P20 in PBS) were injected at a flow rate of 10 μL/min at through flow cells in a manner known as single cycle. Binding reaction between human Fc fragment and the peptide was recorded. […]"}, "[7]": {"system": "IgGs of different species (mouse, donkey, rabbit and sheep)", "assay": "assay akin to ELISA with peptide SA-HRP complexes on IgGs of animal species", "format": "binding", "settings": "biotinylated synthetic peptide complexed to SA-HRP, sheep IgG", "experimental": "as §2\nAdditionally, the binding activity of the synthetic peptide SEQ ID NO: 2 to immunoglobulins of different animal species (mouse, rabbit, donkey, and sheep) was evaluated by an assay akin to ELISA essentially as described above. Peptides SEQ ID NO: 184 and SEQ ID NO: 185 represent two control biotin-labelled synthetic peptides with unrelated amino acids sequences."}}, "note": "No end group written: not given here."}
{"substance": "AGNGSYWYQVWF [SEQ ID NO: 1]", "values": [{"measurement": "relative binding of phage clones to human IgG Fc (phage ELISA)", "setting": "human IgG Fc fragment [1]", "value": "strongest binding phage clone"}, {"measurement": "binding site on Fc fragment relative to SpA", "setting": "human IgG Fc fragment [2]; inferred from competition with SpA", "value": "at least partially overlap"}]}
{"substance": "GSYWYDVWF (not fully specified (C-terminus)) [SEQ ID NO: 26]", "values": [{"measurement": "binding of biotinylated synthetic peptides to human IgGs", "setting": "[3]", "value": "specifically bound to human IgGs"}, {"measurement": "binding compared with the parental peptide SEQ ID NO: 2", "setting": "[3]", "value": "significantly increased binding"}, {"measurement": "trapping efficiency in pull-down assay", "setting": "[4]", "value": "significantly higher than the parent peptide SEQ ID NO: 2"}]}
{"substance": "GSYWYEVWF (not fully specified (C-terminus)) [SEQ ID NO: 30]", "values": [{"measurement": "binding of biotinylated synthetic peptides to human IgGs", "setting": "[3]", "value": "specifically bound to human IgGs"}, {"measurement": "binding compared with the parental peptide SEQ ID NO: 2", "setting": "[3]", "value": "significantly increased binding"}]}
{"substance": "GSYWYQVWF (H-GSYWYQVWF; not fully specified (C-terminus)) [SEQ ID NO: 2]", "values": [{"measurement": "binding to negative controls (phage ELISA)", "setting": "BSA, avidin and SA", "value": "no significant binding"}, {"measurement": "binding to tested therapeutic monoclonal antibodies (phage ELISA)", "setting": "[5]", "value": "strongly bound"}, {"measurement": "binding of biotinylated synthetic peptides to human IgGs", "setting": "[3]", "value": "specifically bound to human IgGs"}, {"measurement": "binding to human IgG subclasses (phage ELISA)", "setting": "[6]", "value": "strongly bound"}, {"measurement": "binding of human Fc to immobilized peptide (SPR)", "setting": "human Fc fragment", "value": "exhibited binding to human Fc"}, {"measurement": "dissociation rate (SPR)", "setting": "human Fc fragment", "value": "slow"}, {"measurement": "binding to IgGs of different animal species", "setting": "[7]", "value": "specifically bound"}]}
{"substance": "SpA: Staphylococcal protein A; cell wall constituent protein derived from Staphylococcal aureus [reference compound]", "values": [{"measurement": "inhibition of binding of FITC-labelled phage clone SEQ ID NO: 1 to immobilized human IgG Fc", "setting": "human IgG Fc fragment [2]; SpA 1 μM, 100 nM or 10 nM, 1 h room temperature", "value": "the higher the concentration of SpA added, the more effectively is binding of the phage clone to human IgG Fc fragment inhibited"}]}
